Laboratory results reported in patent US11298312B2, “Composition comprising niacinamide and picolinamide” (Conopco, Inc., priority 2015, dated 2022).

Each compound was assayed on psoriasin secretion (assay: In-vitro generation of AMP (psoriasin) in differentiated NHEK keratinocytes, psoriasin ELISA of culture supernatant). Conditions: NHEK cells, KGM + 2 mM calcium chloride, 72 h treatment; fold change over control (Example A); concentrations per Table 3.
Format: cell-based, Human
Procedure: In-Vitro Experiment with Combination of Niacinamide and Picolinamide as Per the Present Invention for Generation of AMP (Psoriasin): The experiment was done using the following protocol: Step 1: Human neonatal primary skin keratinocyte (NHEK) cells was obtained from Lonza®. The experiment was done with the above-mentioned cells with passage between 3 and 4. Then, the cells were seeded (35,000 cells/well) in 24 well plate with keratinocyte growth media (KGM) obtained from Invitrogen®. The plate was then incubated at 37±2° C. in a CO2 incubator for 48 hours. Step 2: After 48 hours of incubation, cell differentiation was induced by replacing media with fresh KGM supplemented with 2 mM calcium chloride solution. This was then followed by incubation at 37±2° C. in a CO2 incubator for 48 hours. Step 3: After that, the cells were treated with different concentration of Niacinamide and picolinamide and their combination at various concentration as per following Table 3 with keratinocyte growth media supplemented with 2 mM calcium chloride solution: Step 4: After the above treatment, cells were again incubated at 37±2° C. in a CO2 incubator for 72 hours Step 5: After 72 h of incubation, cell culture supernatant from each well was collected in a sterile tube. The samples were then stored at −80° C. until used for testing psoriasin secretion by standard ELISA technique using psoriasin ELISA kit obtained from Circulx® (No: CY—8073). In the current experiment, psoriasin was used as a marker for AMP. Step 6: The ELISA method was performed by using 100 μL of cell culture supernatant from each sample. The data is expressed in terms of fold change over control (without Niacinamide and/or picolinamide, Example A).

Q: How did the “Fold change in psoriasin secretion” value turn out when `NC(=O)c1ccccn1` [Example E, picolinamide] was run?
A: The value was 3.8.

Q: How did the “Fold change in psoriasin secretion” value turn out when `NC(=O)c1cccnc1` [Example C, Niacinamide] was run?
A: Its value is 3.3.

Q: With `NC(=O)c1cccnc1` [Example B, Niacinamide] as the compound, how does the “Fold change in psoriasin secretion” value read?
A: Its value is 1.8.

Q: Which “Fold change in psoriasin secretion” value does the source give for `NC(=O)c1ccccn1` [Example D, picolinamide] here?
A: Its value is 3.5.
